Measurements taken from patent publication US20040127395A1 (priority 2002, published 2004).

Legend:
[1] = tested on: mouse bone marrow-derived mast cells; assay: Histamine-induced mast cell chemotaxis in vitro (transwell); assay type: cell-based
Protocol: Mast cells were differentiated from bone marrow derived from BALB/c or C57bl/6j mice. Mice were sacrificed by asphyxiation under 95% CO2 and femurs were removed. Bone marrow was aseptically isolated from the femurs. The cells (5×10^5/mL) were cultured at 37° C. with 5% CO2 in culture medium consisting of RPMI with 10% FCS, 0.1 mM non-essential amino acids, 50 μg/mL penicillin/streptomycin and 20% conditioned WEHI-3 medium. Conditioned WEHI-3 medium was prepared from WEHI-3 cells (ATCC), which were cultured in Iscoves Dulbeccos medium with 10% FCS, 4 mM L-glutamine, 1.5 g/L sodium carbonate, 0.05 μM beta-mercaptoethanol and 50 μg/mL penicillin/streptomycin. The filtered supernatant was used as the conditioned WEHI-3 medium. After 16 h in culture, the bone marrow cells were transferred to a new flask. The medium was refreshed once per week. After four weeks, the cells were tested by flow cytometry for IgE receptor and CD117 (c-kit) expression. Mast cells were incubated with anti-DNP IgE (ICN Pharmaceuticals, Costa Mesa, Calif.) or vehicle for 30 min, followed by FITC labeled anti-IgE (Pharmingen) or FITC labeled CD117 (Pharmingen) for 30 min on ice. The cultured mast cells consisted of a homogeneous population which was >99% IgE receptor positive and >99% CD117 positive. Mast cells of four to eight weeks culture time were used for experiments.
Transwells (Costar, Cambridge, Mass.) of a pore size of […] were coated with 100 μL of 100 ng/mL human fibronectin (Sigma) for 2 h at room temperature. […] Mast cells (2×10^5/well) were added to the top chamber. The plates were incubated for 3 h at 37° C. Transwells were removed and the number of cells in the bottom chamber was counted for 60 sec using a flow cytometer.

human eosinophils = assay: Histamine-induced eosinophil shape change (GAFS); assay type: cell-based
Protocol: Human granulocytes were isolated from human blood by a Ficoll gradient. The red blood cells were lysed with 5-10× Qiagen lysis buffer at room temperature for 5-7 min. Granulocytes were harvested and washed once with FACS buffer. The cells were resuspended at a density of 2×10^6 cells/mL in reaction buffer. […] Ten minutes later, the cells were transferred to ice and fixed with 250 μL of ice-cold fixative buffer (2% formaldehyde) for 1 min.

[2] = tested on: mast cells in the mouse trachea; assay: Histamine-induced accumulation of mast cells in the mouse trachea in vivo
[3] = tested on: ovalbumin-sensitized mice; assay: Ovalbumin-induced lung inflammation model, cell counts in BAL fluid; assay type: in vivo, mouse; conditions: for maximum reduction in the number of eosinophils: BAL fluid
[4] = molecular target: human histamine H4 receptor (Homo sapiens, UniProt Q9H3N8)
[5] = tested on: ovalbumin-sensitized mice; assay: Airway hyper-responsiveness to methacholine in ovalbumin-sensitized mice (whole body plethysmography); assay type: in vivo, mouse; conditions: any of the first three doses, FIG. 7
Protocol: Mice (n=8 per group) were sensitized by intraperitoneal injection of ovalbumin/alum on Days 0 and 14. On each of Days 21 through 24, mice were pretreated for 15 min with vehicle or with (5-chloro-1H-benzoimidazol-2-yl)-(4-methyl-piperazin-1-yl)-methanone prior to a 20 min challenge with PBS or ovalbumin.
In one experiment, (5-chloro-1H-benzoimidazol-2-yl)-(4-methyl-piperazin-1-yl)-methanone was administered p.o. at 5, 20, or 50 mg/kg. In a second experiment, (5-chloro-1H-benzoimidazol-2-yl)-(4-methyl-piperazin-1-yl)-methanone was administered p.o. at 0.5, 2, or 5 mg/kg.
Airway hyper-responsiveness in ovalbumin-sensitized animals was monitored in conscious mice by whole body plethysmography (Buxco). Mice (n=8 per group) were treated as described above for the cell measurements.

[6] = p.o., all doses of 5 mg/kg and greater, FIG. 5
[7] = p.o., highest dose tested (50 mg/kg)

human histamine H4 receptor, sequence (Q9H3N8 whole entry): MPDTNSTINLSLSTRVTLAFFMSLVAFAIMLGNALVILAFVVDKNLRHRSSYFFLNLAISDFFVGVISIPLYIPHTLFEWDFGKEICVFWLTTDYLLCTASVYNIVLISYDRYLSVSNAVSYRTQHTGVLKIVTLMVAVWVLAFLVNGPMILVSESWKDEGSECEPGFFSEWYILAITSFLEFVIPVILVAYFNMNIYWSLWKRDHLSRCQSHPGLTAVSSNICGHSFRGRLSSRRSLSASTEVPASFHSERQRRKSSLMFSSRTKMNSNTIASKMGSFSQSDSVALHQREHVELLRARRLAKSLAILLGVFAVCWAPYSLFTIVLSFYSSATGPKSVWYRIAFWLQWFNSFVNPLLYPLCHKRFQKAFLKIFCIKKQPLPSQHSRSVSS

SMILES: NCCc1c[nH]cn1 [Histamine, reference compound]
- migrated mast cells in the lower chamber ([1]; histamine in lower chamber (1.25-20 μM), FIG. 1): dose-dependent increase in migrated mast cells
- shape change in eosinophils (human eosinophils; histamine as stimulus): induces a dose-dependent shape change
- migration of mast cells in the trachea ([2]; 0.1 M histamine aerosol, 20 min on 2 consecutive days): induces a migration of mast cells into the sub-epithelial space

SMILES: CN1CCN(C(=O)c2cc3cc(Cl)ccc3[nH]2)CC1 [(5-Chloro-1H-indol-2-yl)-(4-methyl-piperazin-1-yl)-methanone]
- IC50 (human eosinophils; Eosinophil, human eosinophils, read-out: IC50 for inhibition of histamine-induced eosinophil shape change): 270 nM
- histamine-induced migration of mast cells into the sub-epithelial space ([2]; 20 mg/kg subcutaneous, 15 min prior to each histamine aerosol, FIG. 4): blocked
- number of eosinophils in BAL fluid ([3]; s.c., 60 and 100 mg/kg, FIG. 6): significantly reduced
- total cell number in BAL fluid ([3]; s.c., 60 and 100 mg/kg, FIG. 6): significantly reduced
- maximum reduction in the number of eosinophils ([3]; s.c.): 50%
- number of lymphocytes in BAL fluid ([3]; s.c., same doses that provided reduction in eosinophils): significantly reduced

SMILES: CN1CCN(C(=O)c2cc3cc(Br)ccc3[nH]2)CC1 [(5-Bromo-1H-indol-2-yl)-(4-methyl-piperazin-1-yl)-methanone]
- Ki [4]: 8 nM

SMILES: CN1CCN(C(=O)c2nc3cc(Cl)ccc3[nH]2)CC1 [(5-Chloro-1H-benzoimidazol-2-yl)-(4-methyl-piperazin-1-yl)-methanone]
- inhibition at 1 µM ([1]; Mus musculus, Mast cell): 84%
- inhibition at 10 µM ([1]; Mus musculus, Mast cell): 97%
- airway hyper-responsiveness to methacholine (Penh) [5]: reduced
- macrophages in BAL fluid ([3]; p.o., 5 mg/kg, second experiment): reduction
- maximum reduction in the number of eosinophils ([3]; p.o.): 50%
- number of eosinophils in BAL fluid [3, 6]: significantly reduced
- total cell number in BAL fluid [3, 6]: significantly reduced
- number of macrophages in BAL fluid [3, 7]: reduction
- number of neutrophils in BAL fluid [3, 7]: increase
- number of lymphocytes in BAL fluid ([3]; p.o., same doses which provided maximum reduction in eosinophils): significantly reduced
